These results are taken from ChEMBL document CHEMBL3085709, “Modulators of the Sphingosine 1-phosphate receptor 1” (Bioorg Med Chem Lett, 2013).

Molecules are shown by their SMILES.

Data set [1] is described as follows: Half life of the compound. Format: physicochemical.
Data set [2] relates to Rattus norvegicus. Briefly: Immunomodulatory activity in rat assessed as decrease in peripheral blood lymphocyte count at 100 mg/kg, po after 12 hrs. Format: functional. Also on record: scale not given: the % may be the effect or the level left.
The subject of data set [3] is Mus musculus. Briefly: Immunomodulatory activity in po dosed mouse assessed as decrease in peripheral blood lymphocyte count after 3 hrs. Format: functional.
The test system of data set [4] is Rattus norvegicus. Briefly: Immunomodulatory activity in rat assessed as decrease in peripheral blood lymphocyte count at 50 mg/kg, po after 1 to 8 hrs. Further details: scale not given: the % may be the effect or the level left. It is filed as functional.
In data set [5] the target is T1, Sphingosine 1-phosphate receptor 5 (Homo sapiens, UniProt Q9H228). Briefly: Inhibition of S1P5 receptor (unknown origin).
For data set [6], the target named is T2, Sphingosine 1-phosphate receptor 4 (Homo sapiens, UniProt O95977).
T2 sequence (O95977 whole entry): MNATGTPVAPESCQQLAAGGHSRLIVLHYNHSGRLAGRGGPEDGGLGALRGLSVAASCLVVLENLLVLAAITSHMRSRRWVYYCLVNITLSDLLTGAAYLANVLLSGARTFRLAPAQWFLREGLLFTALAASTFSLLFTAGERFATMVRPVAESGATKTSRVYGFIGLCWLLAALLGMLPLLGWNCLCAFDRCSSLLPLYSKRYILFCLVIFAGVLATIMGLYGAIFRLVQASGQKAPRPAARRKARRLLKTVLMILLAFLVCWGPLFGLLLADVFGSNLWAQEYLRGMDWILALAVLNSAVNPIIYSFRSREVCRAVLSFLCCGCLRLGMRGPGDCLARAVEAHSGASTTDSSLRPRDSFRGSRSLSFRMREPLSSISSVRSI
Put plainly: Inhibition of S1P4 receptor (unknown origin).

Data set [7] addresses T3, Sphingosine 1-phosphate receptor 3 (Homo sapiens, UniProt Q99500). Put plainly: Inhibition of S1P3 receptor (unknown origin).
For data set [8], the target named is Sphingosine 1-phosphate receptor 1 (Homo sapiens, UniProt P21453). Put plainly: Antagonist activity at human S1P1 receptor expressed in HEK293 cells assessed as inhibition of S1P-induced decrease in cAMP formation by [35S]GTPgammaS binding assay. Format: functional, cell-based.
The test system of data set [9] is Rattus norvegicus. Put plainly: Immunomodulatory activity in rat assessed as decrease in peripheral blood lymphocyte count at 30 mg/kg, po after 48 hrs. It is filed as functional. Also on record: scale not given: the % may be the effect or the level left.
Data set [10] deals with Rattus norvegicus. Put plainly: Immunomodulatory activity in rat assessed as decrease in peripheral blood lymphocyte count at 30 mg/kg, po after 14 to 24 hrs. It is filed as functional. Also on record: scale not given: the % may be the effect or the level left.
Data set [11] has as its target T1, Sphingosine 1-phosphate receptor 5. Put plainly: Antagonist activity at human S1P5 receptor expressed in CHO cells after 120 mins by [35S]GTPgammaS binding assay. Format: functional, cell-based.
The target of data set [12] is T2, Sphingosine 1-phosphate receptor 4. Briefly: Antagonist activity at human S1P4 receptor expressed in CHO cells assessed as inhibition of agonist-induced calcium mobilization preincubated for 20 mins by Fluo-4/FLIPR method. Format: functional, cell-based.
Data set [13] deals with T3, Sphingosine 1-phosphate receptor 3. Briefly: Antagonist activity at human S1P3 receptor expressed in CHO cells assessed as inhibition of agonist-induced calcium mobilization preincubated for 20 mins by Fluo-4/FLIPR method. It is filed as functional, cell-based.
The target of data set [14] is Sphingosine 1-phosphate receptor 2 (Homo sapiens, UniProt O95136). Briefly: Antagonist activity at human S1P2 receptor expressed in CHO cells assessed as inhibition of agonist-induced calcium mobilization preincubated for 20 mins by Fluo-4/FLIPR method. It is filed as functional, cell-based.
Data set [15] deals with T2, Sphingosine 1-phosphate receptor 4. Briefly: Agonist activity at S1P4 receptor (unknown origin).
Data set [16] can be described thus: Half life in human. Format: ADME, organism-based. The note with it: in vivo.
Data set [17] has as its system Homo sapiens. Put plainly: Immunomodulatory activity in multiple sclerosis patient assessed as decrease in peripheral blood lymphocyte count at 5 mg/kg, po. It is filed as functional. Further details: scale not given: the % may be the effect or the level left.
In data set [18] the test system is Homo sapiens. Briefly: Immunomodulatory activity in multiple sclerosis patient assessed as decrease in peripheral blood lymphocyte count at 1.25 mg/kg, po. Format: functional. Also on record: scale not given: the % may be the effect or the level left.
The target in data set [19] is T1, Sphingosine 1-phosphate receptor 5. Briefly: Agonist activity at S1P5 receptor (unknown origin).
The target of data set [20] is T3, Sphingosine 1-phosphate receptor 3. Put plainly: Agonist activity at S1P3 receptor (unknown origin).
The target of data set [21] is T1, Sphingosine 1-phosphate receptor 5. Briefly: Agonist activity at human S1P5 receptor expressed in CHO cells by [35S]GTPgammaS binding assay. Format: functional, cell-based.
Data set [22] has as its target T2, Sphingosine 1-phosphate receptor 4. Put plainly: Agonist activity at human S1P4 receptor expressed in CHO cells by [35S]GTPgammaS binding assay. It is filed as functional, cell-based.

T1 sequence (Q9H228 whole entry): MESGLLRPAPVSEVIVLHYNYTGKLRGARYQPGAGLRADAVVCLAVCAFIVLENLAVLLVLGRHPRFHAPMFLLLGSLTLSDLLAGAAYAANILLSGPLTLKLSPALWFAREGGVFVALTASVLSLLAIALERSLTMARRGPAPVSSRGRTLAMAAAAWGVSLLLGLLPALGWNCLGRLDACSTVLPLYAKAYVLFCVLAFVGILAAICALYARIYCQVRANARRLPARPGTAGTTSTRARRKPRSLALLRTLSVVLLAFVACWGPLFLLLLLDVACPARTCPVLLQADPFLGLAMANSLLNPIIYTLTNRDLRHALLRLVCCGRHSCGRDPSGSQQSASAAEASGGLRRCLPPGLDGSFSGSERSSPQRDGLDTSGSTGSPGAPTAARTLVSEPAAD
T3 sequence (Q99500 whole entry): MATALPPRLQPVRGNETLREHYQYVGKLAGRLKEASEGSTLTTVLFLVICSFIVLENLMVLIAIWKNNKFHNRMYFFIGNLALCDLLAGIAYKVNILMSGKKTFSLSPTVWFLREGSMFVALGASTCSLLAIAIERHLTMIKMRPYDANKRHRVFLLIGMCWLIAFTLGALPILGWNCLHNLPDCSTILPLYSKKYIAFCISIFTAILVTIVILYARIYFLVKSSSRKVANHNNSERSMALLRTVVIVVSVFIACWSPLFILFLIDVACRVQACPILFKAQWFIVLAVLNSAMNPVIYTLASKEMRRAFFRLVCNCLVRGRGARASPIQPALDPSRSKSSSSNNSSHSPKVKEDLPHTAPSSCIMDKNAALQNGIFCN
Sphingosine 1-phosphate receptor 1, sequence (P21453 whole entry): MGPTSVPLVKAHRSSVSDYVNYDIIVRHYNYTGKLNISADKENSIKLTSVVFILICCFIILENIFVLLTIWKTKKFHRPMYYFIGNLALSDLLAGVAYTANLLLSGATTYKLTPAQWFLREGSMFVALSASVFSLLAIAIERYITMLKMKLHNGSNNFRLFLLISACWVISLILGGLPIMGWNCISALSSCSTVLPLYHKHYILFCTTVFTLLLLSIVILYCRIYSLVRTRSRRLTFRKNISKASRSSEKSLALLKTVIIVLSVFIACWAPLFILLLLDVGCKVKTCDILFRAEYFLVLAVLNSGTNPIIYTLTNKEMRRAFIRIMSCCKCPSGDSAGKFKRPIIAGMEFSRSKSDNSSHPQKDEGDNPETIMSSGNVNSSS
Sphingosine 1-phosphate receptor 2, sequence (O95136 whole entry): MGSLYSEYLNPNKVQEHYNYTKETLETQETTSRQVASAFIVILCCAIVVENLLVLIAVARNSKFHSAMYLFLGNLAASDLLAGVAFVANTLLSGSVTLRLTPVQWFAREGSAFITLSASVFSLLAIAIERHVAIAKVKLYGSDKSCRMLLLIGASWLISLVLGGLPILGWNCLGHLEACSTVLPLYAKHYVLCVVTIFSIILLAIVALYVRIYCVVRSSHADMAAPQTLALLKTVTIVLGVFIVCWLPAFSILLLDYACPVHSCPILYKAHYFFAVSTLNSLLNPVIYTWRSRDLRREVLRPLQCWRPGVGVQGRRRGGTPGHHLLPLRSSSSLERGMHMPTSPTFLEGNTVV

Consider `Cc1ccc(CCCC(=O)c2ccc(CC[C@@](C)(N)CO)n2C)cc1`, for which the half-life in [1] was 7 days.
Regarding `Cc1cc(S(=O)(=O)Nc2cccc(-c3cc(C)c(C(=O)N[C@@H](C)C(=O)O)c(C)c3)c2)c(C)cc1Cl`, the Activity in data set [2] was determined as 75%.
For the compound `O=C(O)C1CN(Cc2ccc(-c3noc(-c4cc(-c5ccccc5)c(C(F)(F)F)s4)n3)cc2)C1`, the ED50 in [3] was found to be 0.07 mg/kg.
As for `CCn1c(OC)nnc1[C@@H](C)NS(=O)(=O)c1ccc(F)c(Cl)c1`, the Activity in data set [4] is given as over 70%. The Ki in data set [5] is over 10 µM; in data set [6] it was over 10 µM; in data set [7], 4.88 µM; in [8], 249 nM. Besides, the IC50 in data set [8] came out at 383 nM.
Consider `Cc1cc([C@@H](C)Nc2cccc(-c3cc(C)c(C(=O)N[C@@H](C)C(=O)O)c(C)c3)c2)ccc1Cl`, for which the Activity in data set [9] amounted to 60%; in data set [10], 75%. Also, the IC50 in data set [11], in data set [12], in data set [13] and in data set [14] was over 10 µM throughout. In [15], this compound yielded an EC50 of 245 nM.
The compound `CCCCCCCCc1ccc(CCC(N)(CO)CO)cc1` [FINGOLIMOD] showed a half-life in data set [16] of 9 days. The Activity in [17] and in data set [18] was 20% throughout. For the same compound, the EC50 in data set [19] is 0.3 nM; in data set [15], 0.3 nM; in data set [20] it was 3 nM.
The compound `CCC/N=C1\S/C(=C\c2ccc(OC[C@H](O)CO)c(Cl)c2)C(=O)N1c1ccccc1C` [PONESIMOD] had a half-life in data set [1] of 1.25 days.
Turning to `CCc1cc(/C(C)=N/OCc2ccc(C3CCCCC3)c(C(F)(F)F)c2)ccc1CN1CC(C(=O)O)C1` [SIPONIMOD], the half-life in data set [16] was 1.25 days. Moreover, the EC50 in data set [21] turned out to be 0.98 nM; in data set [22], 750 nM.
